Reference: patent US20210260101A1, “POTENTIATED ANTIBIOTIC COMPOSITIONS AND METHODS OF USE FOR TREATING BACTERIAL INFECTIONS AND BIOFILMS” (priority 2018, published 2021)
Values joined by “and” are separate entries in the source; they are usually repeats but may differ in a detail not shown here. Equal values may be shown once. Read-outs that look alike come from different tables or passages of the source. Marks after values point to notes of the source that are not given here.

Key:
[1] = test system: MRSE 35984 biofilm; test: MBEC assay (challenge plate MIC, recovery plate MBEC), MRSE 35984; format: cell-based, Staphylococcus epidermidis
Experimental: A sub-culture of MRSE was grown from the cryogenic stock on an agar plate overnight at 35° C. The MBEC plate was inoculated with 150 μL of TSB/well plus 1 μL of a stock culture made from 1 colony/mL of MRSE in TSB. The MBEC inoculator plate was sealed with Parafilm and incubated for 24 hours at 35° C. with 100 rpm shaking to facilitate biofilm formation on the prongs. Following biofilm formation, the lid of the MBEC inoculator was removed and placed in a rinse plate containing 200 μL of sterile PBS for 10 sec. Biofilm growth check (BGC) was performed by breaking a few prongs off using sterile pliers, submerging them in 1 mL PBS, and sonicating them on high for 30 minutes to dislodge the biofilm. After sonication, the biofilm solution was serial-diluted and spot-plated on agar plates for CFU counting to determine the biofilm density on the prongs.
A challenge plate was made in a new pre-sterilized 96-well plate in a checkerboard-assay pattern to test the synergistic activity of BPEI+antibiotic combinations. Antimicrobial solutions were serial-diluted and added to the 96-well plate, which contained 200 μL of cation-adjusted Mueller-Hinton broth (MHB) per well. Following the rinsing step and biofilm growth check, the MBEC inoculator lid was immediately transferred into the prepared antimicrobial challenge plate and incubated at 35° C. for 20-24 hours. After the challenge period, the MBEC inoculator lid was transferred into a recovery plate containing 200 μL of MHB per well, sonicated on high for 30 minutes to dislodge the biofilm and then incubated at 35° C. for 20-24 hour to allow the surviving bacterial cells to grow. After incubation, the OD600 (optical density at 600 nm) of the recovery plate was measured using a Tecan Infinite M20 plate reader to determine the MBEC of the antimicrobial compounds tested. A change in OD600 greater than 0.05 indicated positive growth. Likewise, the OD600 for the base of the challenge plate was measured […] to determine the MICs of the antimicrobial compounds.

[2] = test system: MRSA MW2; test: Checkerboard assay (Example 3), MRSA MW2; format: cell-based, Staphylococcus aureus; settings: for MIC: MRSA MW2, agent alone
Experimental: (§1) Cells were grown at 37° C. The change in OD600 (optical density at 600 nm) was measured and recorded after 24 hr of treatment. Each checkerboard trial was done in triplicate using sterile Greiner CellStar™ flat bottom polystyrene plates, catalog #655180.

[3] = test system: MRSA USA300 (BAA-1717); test: Checkerboard assay (Example 3), MRSA USA300; format: cell-based, Staphylococcus aureus; settings: for MIC: MRSA USA300, agent alone
Experimental: as §1

[4] = test system: MRSE 35984; test: Checkerboard assay (Example 3), MRSE 35984; format: cell-based, Staphylococcus epidermidis
Experimental: as §1

[5] = test system: MRSA clinical isolate OU11; test: Clinical laboratory susceptibility (MicroScan), MRSA isolate 11; format: cell-based, S. aureus; settings: MicroScan PC33 gram positive panel
[6] = test system: MRSA USA 300 ATCC 1717; test: Checkerboard MIC assay against MRSA USA300 (Example 1); format: cell-based, Staphylococcus aureus; settings: for MIC: Staphylococcus aureus
[7] = test system: MRSE 35984 biofilms; test: Biofilm kill curve; format: cell-based, Staphylococcus epidermidis; settings: 64 μg/mL BPEI, 16 μg/mL oxacillin, or both
Experimental: Biofilm was grown in an MBEC inoculator plate for 24 hours with shaking to facilitate biofilm formation. At time zero, the prongs were sonicated in PBS for 30 minutes and then plated on agar for CFU counting. […] The prongs on the MBEC inoculator were washed in PBS for 10 seconds and then transferred into the new treated base plate and incubated. Agar CFU plating was performed at 2 hours, 4 hours, 8 hours, and 24 hours for each treatment group. All the agar plating was incubated at 35° C. and counted for colony forming units the next day. Each trial was done in duplicate.

[8] = test system: S. epidermidis ATCC 35984 (MRSE 35984); test: MIC/potentiation against MRSE 35984 (Example 1); format: cell-based, Staphylococcus epidermidis
[9] = test system: MRSA clinical isolate OU6; test: Clinical laboratory susceptibility (MicroScan), MRSA isolate 6; format: cell-based, S. aureus; settings: MicroScan PC33 gram positive panel
[10] = test system: S. epidermidis ATCC 12228 (MSSE 12228); test: MIC/potentiation against MSSE 12228; format: cell-based, Staphylococcus epidermidis

Cc1onc(-c2ccccc2)c1C(=O)N[C@@H]1C(=O)N2[C@@H]1SC(C)(C)[C@@H]2C(=O)O [oxacillin]
MBEC, antibiotic + 4 μg/ml (6.75 μM) 600-Da BPEI ([1]; MRSE 35984 biofilm): 8* μg/ml
oxacillin MBEC with 8 μg/mL of BPEI ([1]; MRSE 35984 biofilm): 32 µg/mL
oxacillin MBEC with 64 μg/mL of BPEI ([1]; MRSE 35984 biofilm): 8 µg/mL
oxacillin MBEC in the presence of 13 μM of BPEI600 ([1]; MRSE biofilm): 16 µg/mL
MIC ([1]; Staphylococcus epidermidis, MRSE 35984 planktonic, agent alone): 16 µg/mL
OXA MIC in combination with 600 Da BPEI ([2]; BPEI amount in same cell): 2 µg/mL
MIC ([2]; listed as OXA): 32 µg/mL and 16 µg/mL
OXA MIC in combination with PEG-BPEI ([2]; PEG-BPEI amount in same cell): 4 µg/mL
MIC ([2]; Staphylococcus aureus, MRSA, read-out: MIC): 32 µg/mL
OXA MIC in combination with 600 Da BPEI ([3]; BPEI amount in same cell): 4 µg/mL
MIC ([3]; listed as OXA): 32 µg/mL and 16 µg/mL
OXA MIC in combination with PEG-BPEI ([3]; PEG-BPEI amount in same cell): 2 µg/mL
MIC ([3]; Staphylococcus aureus, read-out: MIC): 32 µg/mL
OXA MIC in combination with 600 Da BPEI ([4]; BPEI amount in same cell): 8 µg/mL
MIC ([4]; MRSE 35984, agent alone): 32 µg/mL
MIC ([4]; MRSE 35984, agent alone, listed as OXA): 32 µg/mL and 64 µg/mL
OXA MIC in combination with PEG-BPEI ([4]; PEG-BPEI amount in same cell): 8 µg/mL
MIC ([4]; Staphylococcus epidermidis, MRSE, MRSE 35984, agent alone, read-out: MIC): 64 µg/mL
MIC ([4]; Staphylococcus epidermidis, MRSE, read-out: oxacillin MIC with 6.67 μM BPEI600, MRSE planktonic cells): 4 µg/mL
MIC ([4]; Staphylococcus epidermidis, MRSE, read-out: oxacillin MIC with 33.37 μM of PEG350-BPEI600, MRSE planktonic cells): 4 µg/mL
MIC [5]: > 2 µg/mL
MIC with 4 μg/ml (6.75 μM) 600-Da BPEI ([6]; MRSA USA300): 1 µg/mL
MIC, antibiotic + 16 μg/ml (17 μM) PEG350BPEI600 ([6]; MRSA USA300): 0.5 µg/mL
MIC, antibiotic + 64 μg/ml (40 μM) PEG1000BPEI600 ([6]; MRSA USA300): 0.5 µg/mL
MIC ([6]; MRSA USA300, agent alone, read-out: MIC of antibiotic only): 16 µg/mL
MIC ([6]; MRSA USA300, read-out: oxacillin MIC with 16 μg/mL of PEG350BPEI600 (17 μM)): 0.5 µg/mL
effect of 50% FBS on oxacillin MIC ([6]; potentiation in fetal bovine serum vs CAMHB without FBS): does not change
fold reduction of oxacillin MIC ([6]; with BPEI600, MRSA USA300): 2 fold
biofilm cell density at 24 hours [7]: ~10^3 CFU/mL
MIC, antibiotic + 2 μg/ml (3.375 μM) 600-Da BPEI [8]: 2 µg/mL
MIC, antibiotic + 4 μg/ml (6.75 μM) 600-Da BPEI [8]: 0.25 µg/mL
fold reduction of oxacillin MIC ([8]; adding 6.75 μM of BPEI600): 256 fold
MIC of antibiotic only ([8]; agent alone): 64 µg/mL
MIC [9]: > 2 µg/mL
MIC, antibiotic + 2 μg/ml (3.375 μM) 600-Da BPEI [10]: 0.1 µg/mL
MIC, antibiotic + 4 μg/ml (6.75 μM) 600-Da BPEI [10]: 0.1 µg/mL
MIC of antibiotic only ([10]; agent alone): 0.1 µg/mL
